Laboratory results from US9249096B2, “Pyrrolinone carboxamide compounds useful as endothelial lipase inhibitors” (Bristol-Myers Squibb Company, priority 2011, dated 2016).

The compounds below were run against endothelial lipase (EL) (Homo sapiens (Human), UniProt Q9Y5X9) (assay: Endothelial lipase (EL) enzymatic assay with fluorescent substrate A10070 in DMPG vesicles). Conditions: conditioned media from HT-1080 cells overexpressing endogenous EL; 20 min preincubation at 37° C.; read-out: HLE_EL_CRC IC50.
Chain of endothelial lipase (EL) (Q9Y5X9 21-500): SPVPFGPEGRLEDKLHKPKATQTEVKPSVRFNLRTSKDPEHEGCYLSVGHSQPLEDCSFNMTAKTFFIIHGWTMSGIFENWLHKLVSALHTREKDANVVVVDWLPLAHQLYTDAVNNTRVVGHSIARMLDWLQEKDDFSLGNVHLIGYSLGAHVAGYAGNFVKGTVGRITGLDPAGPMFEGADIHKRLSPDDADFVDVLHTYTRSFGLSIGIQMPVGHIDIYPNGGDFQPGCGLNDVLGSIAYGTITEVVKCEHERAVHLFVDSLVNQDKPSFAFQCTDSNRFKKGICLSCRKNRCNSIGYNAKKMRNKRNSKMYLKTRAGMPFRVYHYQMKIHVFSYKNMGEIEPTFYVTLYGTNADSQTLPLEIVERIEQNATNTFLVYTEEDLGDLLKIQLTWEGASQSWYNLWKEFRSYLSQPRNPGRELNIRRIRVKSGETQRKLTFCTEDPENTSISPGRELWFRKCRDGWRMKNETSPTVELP
Type: biochemical
Experimental: Endothelial lipase activity was measured using a fluorescent substrate, A10070, (Invitrogen, CA) doped into an artificial vesicle containing DMPG (Avanti Polar Lipids) as the excipient. Vesicles were prepared by combining 285 uL of 1 mM DMPG in a 1:1 mixture of MeOH and CHCl3 with 15 uL of 1 mM A10070 in a 1:1 mixture of MeOH and CHCl3. The mixture was dried under nitrogen and resuspended in 150 uL of 50 mM HEPES pH 8.0 buffer containing 100 mM NaCl and 0.2 mM EDTA. The sample was allowed to sit at rt for 15 min and then was sonicated 3×4 mins on ice with a Branson Sonicator using duty cycle 1. This preparation provides vesicles with a mole fraction of 0.05 for the FRET substrate.
The enzymatic assay was measured using white, opaque 96-well half area plates. Each well contained 60 uL of assay buffer (50 mM HEPES pH 8.0, 50 mM NaCl and 1 mM CaCl2) and 2 ul of a DMSO solution containing compound of interest. Conditioned media obtained from HT-1080 cells, which were transformed by RAGE technology (Athersys) to overexpress endogenous EL, was added and the reaction was allowed to incubate for 20 min at 37° C. with gentle agitation. The reaction was started by the addition of 20 uL of a 1:4 dilution of vesicles. The final total reaction volume was 100 uL. The reaction rates were measured on a Gemini plate reader with an excitation wavelength of 488 nm and a emission of 530 nm. Readings were taken every 20 seconds for 10 min with agitation between each reading. The slope of the linear portion of the readout was used to calculate the rate of the reaction.
The exemplified examples disclosed in the present invention were tested in the EL assay described above and found having EL inhibitory activity.
Compound CN1C(=O)C(O)=C(C(=O)NCCCc2ccc(Cl)c(Cl)c2)C1CCc1ccccc1 (single isomer, unassigned; isomer a) [Example 195, N-(3-(3,4-dichlorophenyl)propyl)-4-hydroxy-1-methyl-5-oxo-2-phenethyl-2,5-dihydro-1H-pyrrole-3-carboxamide (isomer A)] has an IC50 of 523 nM. For CN1CC(C(=O)NCCc2ccc(Cl)c(Cl)c2)=C(O)C1=O [Example 1, N-(3,4-dichlorophenethyl)-4-hydroxy-1-methyl-5-oxo-2,5-dihydro-1H-pyrrole-3-carboxamide], the IC50 was 528 nM. With CN1CC(C(=O)NCCc2ccccc2)=C(O)C1=O [Example 3, 4-hydroxy-1-methyl-5-oxo-N-phenethyl-2,5-dihydro-1H-pyrrole-3-carboxamide] the IC50 was 2950 nM. For CN1CC(C(=O)NCCc2ccc(Cl)cc2)=C(O)C1=O [Example 5, N-(4-chlorophenethyl)-4-hydroxy-1-methyl-5-oxo-2,5-dihydro-1H-pyrrole-3-carboxamide], the IC50 was 559 nM. CN1C(=O)C(O)=C(C(=O)NCCCc2ccc(Cl)c(Cl)c2)C1C(C)(C)C (stereo not drawn) [Example 17, 2-tert-butyl-N-(3-(3,4-dichlorophenyl)propyl)-4-hydroxy-1-methyl-5-oxo-2,5-dihydro-1H-pyrrole-3-carboxamide] gave an IC50 of 430 nM. With Cc1ccc(CC2C(C(=O)NCCCc3ccc(Cl)c(Cl)c3)=C(O)C(=O)N2C)cc1 (stereo not drawn) [Example 30, N-(3-(3,4-dichlorophenyl)propyl)-4-hydroxy-1-methyl-2-(4-methylbenzyl)-5-oxo-2,5-dihydro-1H-pyrrole-3-carboxamide] the IC50 was 584 nM. In the case of O=C(NCCCc1ccc(Cl)c(Cl)c1)C1=C(O)C(=O)N(C2CCC2)C1 [Example 39, 1-cyclobutyl-N-(3-(3,4-dichlorophenyl)propyl)-4-hydroxy-5-oxo-2,5-dihydro-1H-pyrrole-3-carboxamide], the IC50 is reported as 5.09 nM. O=C(NCCCc1ccc(Cl)c(Cl)c1)C1=C(O)C(=O)N(Cc2ccccc2)C1 [Example 40, 1-benzyl-N-(3-(3,4-dichlorophenyl)propyl)-4-hydroxy-5-oxo-2,5-dihydro-1H-pyrrole-3-carboxamide] gave an IC50 of 3.65 nM. In the case of CC(C)CN1CC(C(=O)NCCCc2ccc(Cl)c(Cl)c2)=C(O)C1=O [Example 42, N-(3-(3,4-dichlorophenyl)propyl)-4-hydroxy-1-isobutyl-5-oxo-2,5-dihydro-1H-pyrrole-3-carboxamide], the IC50 is reported as 2.93 nM. O=C(NCCCc1ccc(Cl)c(Cl)c1)C1=C(O)C(=O)N(CCc2ccccc2)C1 [Example 44, N-(3-(3,4-dichlorophenyl)propyl)-4-hydroxy-5-oxo-1-phenethyl-2,5-dihydro-1H-pyrrole-3-carboxamide] showed an IC50 of 3.22 nM. CC(C)CCN1CC(C(=O)NCCCc2ccc(Cl)c(Cl)c2)=C(O)C1=O [Example 45, N-(3-(3,4-dichlorophenyl)propyl)-4-hydroxy-1-isopentyl-5-oxo-2,5-dihydro-1H-pyrrole-3-carboxamide] was tested, and the IC50 was 2.71 nM. In the case of CCCCN1CC(C(=O)NCCCc2ccc(Cl)c(Cl)c2)=C(O)C1=O [Example 46, 1-butyl-N-(3-(3,4-dichlorophenyl)propyl)-4-hydroxy-5-oxo-2,5-dihydro-1H-pyrrole-3-carboxamide], the IC50 is reported as 3.25 nM. O=C(NCCCc1ccc(Cl)c(Cl)c1)C1=C(O)C(=O)N(Cc2cccc(Cl)c2)C1 [Example 47, 1-(3-chlorobenzyl)-N-(3-(3,4-dichlorophenyl)propyl)-4-hydroxy-5-oxo-2,5-dihydro-1H-pyrrole-3-carboxamide] was tested, and the IC50 was 3.3 nM. With O=C(NCCCc1ccc(Cl)c(Cl)c1)C1=C(O)C(=O)N(Cc2cccc(F)c2)C1 [Example 50, N-(3-(3,4-dichlorophenyl)propyl)-1-(3-fluorobenzyl)-4-hydroxy-5-oxo-2,5-dihydro-1H-pyrrole-3-carboxamide] the IC50 was 5.99 nM. O=C(NCCCc1ccc(Cl)c(Cl)c1)C1=C(O)C(=O)N(Cc2ccc(F)cc2)C1 [Example 51, N-(3-(3,4-dichlorophenyl)propyl)-1-(4-fluorobenzyl)-4-hydroxy-5-oxo-2,5-dihydro-1H-pyrrole-3-carboxamide] gave an IC50 of 5.52 nM. For O=C(NCCCc1ccc(Cl)c(Cl)c1)C1=C(O)C(=O)N(CCc2ccccc2Cl)C1 [Example 53, 1-(2-chlorophenethyl)-N-(3-(3,4-dichlorophenyl)propyl)-4-hydroxy-5-oxo-2,5-dihydro-1H-pyrrole-3-carboxamide], the IC50 was 5.24 nM. Work on CC(C)(C)CCN1CC(C(=O)NCCCc2ccc(Cl)c(Cl)c2)=C(O)C1=O [Example 55, N-(3-(3,4-dichlorophenyl)propyl)-1-(3,3-dimethylbutyl)-4-hydroxy-5-oxo-2,5-dihydro-1H-pyrrole-3-carboxamide] yielded an IC50 of 5.8 nM. CCOCCN1CC(C(=O)NCCCc2ccc(Cl)c(Cl)c2)=C(O)C1=O [Example 57, N-(3-(3,4-dichlorophenyl)propyl)-1-(2-ethoxyethyl)-4-hydroxy-5-oxo-2,5-dihydro-1H-pyrrole-3-carboxamide] showed an IC50 of 6.3 nM. In the case of O=C(NCCCc1ccc(Cl)c(Cl)c1)C1=C(O)C(=O)N(Cc2cc(Cl)cc(Cl)c2)C1 [Example 60, 1-(3,5-dichlorobenzyl)-N-(3-(3,4-dichlorophenyl)propyl)-4-hydroxy-5-oxo-2,5-dihydro-1H-pyrrole-3-carboxamide], the IC50 is reported as 5.64 nM. Compound O=C(NCCCc1ccc(Cl)c(Cl)c1)C1=C(O)C(=O)N(CCc2ccc(F)cc2)C1 [Example 64, N-(3-(3,4-dichlorophenyl)propyl)-1-(4-fluorophenethyl)-4-hydroxy-5-oxo-2,5-dihydro-1H-pyrrole-3-carboxamide] has an IC50 of 5.61 nM. CC(C)OCCN1CC(C(=O)NCCCc2ccc(Cl)c(Cl)c2)=C(O)C1=O [Example 65, N-(3-(3,4-dichlorophenyl)propyl)-4-hydroxy-1-(2-isopropoxyethyl)-5-oxo-2,5-dihydro-1H-pyrrole-3-carboxamide] showed an IC50 of 1.6 nM. CN1CC(C(=O)NCCCc2ccccc2)=C(O)C1=O [Example 166, 4-hydroxy-1-methyl-5-oxo-N-(3-phenylpropyl)-2,5-dihydro-1H-pyrrole-3-carboxamide] was tested, and the IC50 was 6440 nM. Work on CN1CC(C(=O)NCCCc2c(Cl)cccc2Cl)=C(O)C1=O [Example 208, N-(3-(2,6-dichlorophenyl)propyl)-4-hydroxy-1-methyl-5-oxo-2,5-dihydro-1H-pyrrole-3-carboxamide] yielded an IC50 of 384 nM. CC(CCc1ccc(Cl)c(Cl)c1)NC(=O)C1=C(O)C(=O)N(C)C1 (stereo not drawn) [Example 229, N-(4-(3,4-dichlorophenyl)butan-2-yl)-4-hydroxy-1-methyl-5-oxo-2,5-dihydro-1H-pyrrole-3-carboxamide] was tested, and the IC50 was 4550 nM. CC(C)C(CCc1ccc(Cl)c(Cl)c1)NC(=O)C1=C(O)C(=O)N(C)C1 (stereo not drawn) [Example 230, N-(1-(3,4-dichlorophenyl)-4-methylpentan-3-yl)-4-hydroxy-1-methyl-5-oxo-2,5-dihydro-1H-pyrrole-3-carboxamide] gave an IC50 of 9640 nM. For CN1CC(C(=O)NC(CCc2ccc(Cl)c(Cl)c2)c2ccccc2)=C(O)C1=O (stereo not drawn) [Example 235, N-(3-(3,4-dichlorophenyl)-1-phenylpropyl)-4-hydroxy-1-methyl-5-oxo-2,5-dihydro-1H-pyrrole-3-carboxamide], the IC50 was 3060 nM. Work on CCN1CC(C(=O)NCCCc2cccc(OC)n2)=C(O)C1=O [Example 265, 1-ethyl-4-hydroxy-N-(3-(6-methoxypyridin-2-yl)propyl)-5-oxo-2,5-dihydro-1H-pyrrole-3-carboxamide] yielded an IC50 of 3460 nM.
